Flash point data for 38 molecules are collected here from a flash point compilation (Sun et al. 2020).

Structures are written as SMILES. Structures can show the parent of a compound that is named as a salt.

`CCCC(=O)Cl` [butanoyl chloride] gave a flash point of 22.00 °C.
Under `CCCCOC(=O)C(C)O` (stereo not drawn) [butyl 2-hydroxypropanoate] stands 71.00 °C.
With `CCCCOC(=O)CC(C)C` [butyl 3-methylbutanoate] the figure was 53.00 °C; with `CCCCCCCC/C=C\CCCCCCCC(=O)OCCCC` [butyl (Z)-octadec-9-enoate], 180.00 °C.
Under `CCCCOC(C)=O` [butyl acetate] stands 22.00 °C.
In the case of `CCCCOC(=O)c1ccccc1` [butyl benzoate], the flash point came to 107.00 °C.
Under `CCCCOC=O` [butyl formate] stands 18.00 °C; under `C=CC(=O)OCCCC` [butyl prop-2-enoate], 49.00 °C; under `CCCCOC(=O)CC` [butyl propanoate], 38.00 °C.
Under `CCCCc1ccccc1` [butylbenzene] stands 71.00 °C.
Under `C[Si](C)(C)Cl` [chloro(trimethyl)silane] stands -18.00 °C.
On to `ClC1CCCCC1` [chlorocyclohexane], for which the flash point was 32.00 °C.
Regarding `CCCl` [chloroethane], the flash point is -50.00 °C.
Under `C=CCl` [chloroethene] stands -79.00 °C.
Under `ClCc1ccccc1` [chloromethylbenzene] stands 67.00 °C; under `O=c1ccc2ccccc2o1` [chromen-2-one], 151.00 °C; under `CC(C)c1ccccc1` [cumene], 36.00 °C.
Under `N#CN` [cyanamide] stands 141.00 °C.
Molecule `C1=CCCC=CCCC=CCC1` [cyclododeca-1,5,9-triene] showed a flash point of 71.00 °C.
In turn, `C1=CCCC=C1` [cyclohexa-1,3-diene] gave a flash point of 26.00 °C.
For the molecule `SC1CCCCC1` [cyclohexanethiol], the flash point is 43.00 °C.
With `O=C1CCCCC1` [cyclohexanone] the figure was 44.00 °C; with `C1=CCCCC1` [cyclohexene], -12.00 °C; with `[Ni+2].c1cc[cH-]c1.c1cc[cH-]c1` [cyclopenta-1,3-diene;nickel(2+)], 4.00 °C.
Under `C=CCCCCCCCC` [dec-1-ene] stands 53.00 °C.
With `CCCCCCCCCC=O` [decanal] the figure was 85.00 °C; with `CCCCCCCCCCS` [decane-1-thiol], 98.00 °C.
Take `O=C(O)CCCCCCCCC(=O)O` [decanedioic acid]: the flash point was determined as 220.00 °C.
As to `CCCCCCCCCC(=O)O` [decanoic acid], the flash point stood at 113.00 °C.
Under `CCCCCCCCCCc1ccccc1` [decylbenzene] stands 107.00 °C.
`CCCCOC(=O)c1ccccc1C(=O)OCCCC` [dibutyl benzene-1,2-dicarboxylate] had a flash point of 157.00 °C.
Under `CCCCOC(=O)CCCCCCCCC(=O)OCCCC` [dibutyl decanedioate] stands 178.00 °C; under `CCCCOC(=O)CCCCC(=O)OCCCC` [dibutyl hexanedioate], 113.00 °C.
The molecule `CCCCOP(=O)(O)OCCCC` [dibutyl hydrogen phosphate] registered a flash point of 188.00 °C.
With `CCC[CH2][Sn]([Cl])([Cl])[CH2]CCC` [dibutyl(dichloro)stannane] the figure was 168.00 °C.
With `Cl[Si](Cl)(c1ccccc1)c1ccccc1` [dichloro(diphenyl)silane] the figure was 142.00 °C.
The molecule `CCCCCCCCCCCCCCCCCC(=O)O.O.[Cl][Cr][Cl].[Cl][Cr][Cl]` [dichlorochromium;octadecanoic acid;hydrate] returned a flash point of 2.00 °C.
Under `CCCCCCCCCCOC(=O)c1ccccc1C(=O)OCCCCCCCCCC` [didecyl benzene-1,2-dicarboxylate] stands 232.00 °C.
